PubChem BioAssay (NCI)
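1) Cells in 96-well plates. 2) Compound, 48 h, 5 concentrations. 3) Linear interpolation between surrounding doses. 4) Unreached endpoint = highest concentration. TGI marks complete inhibition of growth.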

Experiments:
Experiment in all cases: NCI tumour cell line growth inhibition, 48 h
SK-MEL-28 melanoma = system: SK-MEL-28 melanoma
K-562 leukemia = system: K-562 leukemia
SK-MEL-5 melanoma = system: SK-MEL-5 melanoma
UO-31 renal = system: UO-31 renal
HL-60(TB) leukemia = system: HL-60(TB) leukemia
NCI-H460 lung = system: NCI-H460 lung
NCI-H226 lung = system: NCI-H226 lung
UACC-62 melanoma = system: UACC-62 melanoma
SW-620 colon = system: SW-620 colon
HOP-92 NSCLC = system: HOP-92 NSCLC
CCRF-CEM leukemia = system: CCRF-CEM leukemia
T-47D breast = system: T-47D breast
PC-3 prostate = system: PC-3 prostate
SF-268 CNS = system: SF-268 CNS
UACC-257 melanoma = system: UACC-257 melanoma
COLO 205 colon = system: COLO 205 colon
BT-549 breast = system: BT-549 breast
SK-MEL-2 melanoma = system: SK-MEL-2 melanoma

SMILES | TGI (SK-MEL-28 melanoma) [µM] | TGI (K-562 leukemia) [µM] | TGI (SK-MEL-5 melanoma) [µM] | TGI (UO-31 renal) [µM] | TGI (HL-60(TB) leukemia) [µM] | TGI (NCI-H460 lung) [µM] | TGI (NCI-H226 lung) [µM] | TGI (UACC-62 melanoma) [µM] | TGI (SW-620 colon) [µM] | TGI (HOP-92 NSCLC) [µM] | TGI (CCRF-CEM leukemia) [µM] | TGI (T-47D breast) [µM] | TGI (PC-3 prostate) [µM] | TGI (SF-268 CNS) [µM] | TGI (UACC-257 melanoma) [µM] | TGI (COLO 205 colon) [µM] | TGI (BT-549 breast) [µM] | TGI (SK-MEL-2 melanoma) [µM]
CN(C)c1nc(=NCc2cccs2)ss1 | > 10 | > 10 | > 10 | > 10 | 2.16 | > 10 | > 10 | > 10 | > 10 | > 10 | 1.83 | > 10 | > 10 | > 10 | > 10 | > 10 | – | –
Cc1ccc(C(CC(=O)C(C)(C)CN2CCCCC2)SCCS(=O)(=O)O)cc1 (stereo not drawn) | – | 51.4 | 46.5 | 65.3 | – | > 100 | 70.5 | 46.8 | 62.8 | 42.3 | 45.9 | – | > 100 | > 100 | – | 35.3 | > 100 | 40.1
O=C(Nc1nc2ccccc2n1Cc1ccc(Cl)cc1)NC12CC3CC(CC(C3)C1)C2 | 68.3 | > 100 | > 100 | > 100 | > 100 | > 100 | 70.7 | 38 | > 100 | 56.8 | > 100 | – | – | 23.8 | > 100 | > 100 | – | 87.7
COc1c(C)c(C/C=C(\C)CCCCO)c(OC)c(OC)c1OC | – | > 100 | > 100 | > 100 | – | 35.1 | – | > 100 | > 100 | > 100 | > 100 | – | > 100 | > 100 | > 100 | > 100 | > 100 | > 100
c1ccc(N=c2sc3ccccc3sc2=Nc2ccccc2)cc1 | 3.4 | > 100 | 5.14 | 2.93 | > 100 | 3.79 | 9.3 | 2.66 | 3.27 | 9.93 | > 100 | 3.56 | 25.5 | 10.2 | 12.7 | 3.69 | – | 3.45
CCOC(=O)C(=Cc1cc(OC)ccc1OC)C(=O)OCC | 17.1 | 27.4 | 17.2 | – | 6.12 | > 100 | 27 | 6.13 | 14 | 17 | – | – | – | – | – | 17.2 | – | 18.1
CC(C)Oc1ccc(CNC2=NCCO2)c2ccccc12 | 27.6 | 15.8 | 26.3 | 18.2 | 23.6 | 26.7 | 33 | 30.6 | 31.7 | – | 30.4 | 31.3 | – | 45.7 | 20 | 36.8 | – | –
CC(C)c1c(O[Si](C(C)C)(C(C)C)C(C)C)c2c3c(ccc4c3c1OC4(C)C)C(C)CC2 (stereo not drawn) | > 100 | > 100 | > 100 | > 100 | > 100 | > 100 | > 100 | > 100 | > 100 | > 100 | > 100 | – | > 100 | > 100 | > 100 | > 100 | – | > 100
COC(=O)c1c2c(c(-c3ccccc3)c3c1-c1nc(Cl)ccc1CC3)CCc1ccc(Cl)nc1-2 | > 100 | > 100 | > 100 | > 100 | > 100 | > 100 | > 100 | > 100 | > 100 | > 100 | > 100 | – | – | > 100 | > 100 | > 100 | – | –
Cc1ccsc1C(=O)C(CC(=O)c1cccs1)c1ccsc1 (stereo not drawn) | > 100 | > 100 | > 100 | > 100 | – | > 100 | > 100 | – | > 100 | > 100 | > 100 | 77.1 | > 100 | > 100 | > 100 | > 100 | > 100 | –
CC(C)[Si](OC1=C(C(=O)N(C)c2ccccc2Cl)CCCC1)(C(C)C)C(C)C | 37.4 | > 100 | 27.5 | 27.6 | – | 28.6 | 31 | 34 | 33.3 | 26.3 | 29.7 | 10.5 | 24.4 | 29.2 | 24.1 | 29.3 | – | 29.3
CC(C)=C[C@@H]1C[C@H](C)c2c(O)cc(C)c3c2C1=C(C)C(=O)C3=O | 29.8 | 40.1 | 26.5 | – | 44.4 | 48.8 | 33 | 29.6 | 32.4 | 26.9 | 47.2 | – | 23.6 | 31.4 | 37.5 | 32.6 | 28.1 | –
CC(C)C1SCc2nc3ccccc3n21 (stereo not drawn) | > 100 | > 100 | 31 | > 100 | > 100 | > 100 | 0.96 | > 100 | > 100 | > 100 | > 100 | > 100 | 71.2 | > 100 | > 100 | 26.8 | – | 79.6
COc1ccc(/C=C2\SC(c3ccc(OC)cc3)N(NC(=O)Cc3ccccc3)C2=O)cc1 (stereo not drawn) | > 100 | > 100 | > 100 | > 100 | > 100 | > 100 | > 100 | > 100 | > 100 | > 100 | > 100 | – | – | > 100 | > 100 | > 100 | – | > 100
CC1(Br)C(=O)NC(=O)N(C2CC(N=[N+]=[N-])C(CO)O2)C1N=[N+]=[N-] (stereo not drawn) | > 100 | > 100 | > 100 | > 100 | > 100 | > 100 | – | > 100 | > 100 | > 100 | > 100 | – | – | > 100 | > 100 | > 100 | – | > 100
